Structures are written as SMILES.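 Assay format: 96-well plates, 48-hour exposure. TGI: concentration producing complete growth inhibition.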

In one assay the test system is OVCAR-8 ovarian. Put plainly: NCI-60 cell line screen, 48 h.
In the case of `O=CN1CCN(C(=O)c2ccco2)C1=S`, the TGI came out at 59 µM.

The compound `CC(=O)C1(O)CCC2(O)C3(O)CC=C4CC(O)CCC4(C)C3CC(OC(=O)c3ccc(O)cc3)C12C` (stereo unspecified) had a TGI of over 100 µM.

`Cn1c2c(c3ccccc31)CCN1C(=O)C34CCCC3CC21S4` (stereo unspecified) showed a TGI of over 100 µM.

On to `Clc1ccc(OCc2nnc(COc3ccc(OCc4nnc(COc5ccc(Cl)cc5Cl)o4)c(Cl)c3)o2)c(Cl)c1`, for which the TGI was over 100 µM.

`O=C1/C(=C/c2ccncc2)C(n2cccc2)c2c(Br)sc(Br)c21` (stereo unspecified) returned a TGI of 5.82 µM.

In turn, `COCC#C[C@@]1(O)CCCCC1CC(OC)OC` (stereo partly specified) showed a TGI of over 100 µM.

`C=C1CC(COc2ccc3c(C)c(C)c(=O)oc3c2C)(c2ccccc2)OC1=O` (stereo unspecified) gave a TGI of 3.59 µM.

The compound `CC(=O)OCC(=O)O[C@@H]1[C@H]2[C@@H](OC(=O)c3ccccc3)[C@@H](C)C[C@]2(O)[C@H](OC(C)=O)[C@@]2(C)C[C@]1(OC(C)=O)C[C@H]1C(=O)C(C)(C)[C@@H](OC(C)=O)[C@@H]12` displayed a TGI of over 25 µM.

Consider `O=C(Sc1c(-c2ccccc2)c(=O)n(-c2ccccc2)c(=S)n1-c1ccccc1)c1ccco1`, for which the TGI is over 100 µM.

`Cn1nc2c(c1N)Cc1c(nn(C)c1N)-c1ccccc1-2` came in with a TGI of over 100 µM.

The compound `COC(=O)C1=C(C(=O)OC)SC(=C2SC3=C(SC(=C4SCCS4)S3)S2)S1` registered a TGI of over 100 µM.

Take `CCC(=O)Nc1ccc(NS(=O)(=O)c2ccc(Cl)cc2)cc1`: the TGI was over 100 µM.

Consider `c1c(N2CCOCC2)ssc1=[N+]1CCOCC1`, for which the TGI was over 100 µM.

In the case of `Cc1nnc2n1-c1ccccc1N(Cc1ccccc1)CC2`, the TGI was over 100 µM.

`CC(C)(C)c1cc(/C=C2/NC(=O)NC2=O)cc(C(C)(C)C)c1O` yielded a TGI of 38.5 µM.

For the compound `Cc1cnc2[nH]c(-c3cccc(F)c3)cc(=O)c2c1`, the TGI is 1.5 µM.

Regarding `O=C(/C=C\Nc1ccccc1O)C(F)(F)F`, the TGI is over 100 µM.

Consider `CC1(C)OC[C@@H](C[C@H](O)COCc2ccccc2)O1`, for which the TGI is over 100 µM.

In the case of `NC(N)=NS(=O)(=O)c1ccc(NC(=O)c2cccc3c(NNc4ccc(S(N)(=O)=O)cc4)c4ccccc4nc23)cc1`, the TGI was over 100 µM.

In the case of `Nc1nncc2[nH]cnc12`, the TGI was over 79.8 µM.

On to `S=c1[nH]nc(Cn2c3ccc(Br)cc3c3nc4ccccc4nc32)n1C1CCCCC1`, for which the TGI is over 67.5 µM.

For `COc1ccc2c(c1)-c1c(c3cc(OC)ccc3n1CCN(C)C)CC2`, the TGI was 32.6 µM.

In turn, `COc1ccc(C2=C(Cl)C(=O)O/C2=C\c2ccc(OC)c(Br)c2)cc1Cl` had a TGI of 51.8 µM.

Regarding `CNC(=S)NNc1ncnc2c1c(-c1ccc(Cl)cc1)cn2-c1ccc(C)cc1`, the TGI was determined as 31.5 µM.

In the case of `CCCCCCCCCCCCNC(=O)CCC(NC(=O)c1ccc(N(C)Cc2cnc3nc(N)nc(N)c3n2)cc1)C(=O)NCCCCCCCCCCCC` (stereo unspecified), the TGI was over 100 µM.

Take `O=C1c2cccnc2S(=O)(=O)N1c1ccc([N+](=O)[O-])cc1`: the TGI was over 100 µM.

A further assay has as its system RPMI-8226 leukemia. Put plainly: NCI-60 cell line screen, 48 h.
Take `O=CN1CCN(C(=O)c2ccco2)C1=S`: the TGI stood at 8.96 µM.

As for `CC(=O)C1(O)CCC2(O)C3(O)CC=C4CC(O)CCC4(C)C3CC(OC(=O)c3ccc(O)cc3)C12C` (stereo unspecified), the TGI is over 100 µM.

`Cn1c2c(c3ccccc31)CCN1C(=O)C34CCCC3CC21S4` (stereo unspecified) returned a TGI of over 100 µM.

The compound `Clc1ccc(OCc2nnc(COc3ccc(OCc4nnc(COc5ccc(Cl)cc5Cl)o4)c(Cl)c3)o2)c(Cl)c1` had a TGI of 39.6 µM.

Regarding `O=C1/C(=C/c2ccncc2)C(n2cccc2)c2c(Br)sc(Br)c21` (stereo unspecified), the TGI is 7.2 µM.

For the compound `COCC#C[C@@]1(O)CCCCC1CC(OC)OC` (stereo partly specified), the TGI was determined as 94.5 µM.

`C=C1CC(COc2ccc3c(C)c(C)c(=O)oc3c2C)(c2ccccc2)OC1=O` (stereo unspecified) returned a TGI of 0.764 µM.

`CC(=O)OCC(=O)O[C@@H]1[C@H]2[C@@H](OC(=O)c3ccccc3)[C@@H](C)C[C@]2(O)[C@H](OC(C)=O)[C@@]2(C)C[C@]1(OC(C)=O)C[C@H]1C(=O)C(C)(C)[C@@H](OC(C)=O)[C@@H]12` had a TGI of over 25 µM.

`O=C(Sc1c(-c2ccccc2)c(=O)n(-c2ccccc2)c(=S)n1-c1ccccc1)c1ccco1` yielded a TGI of over 83.7 µM.

The compound `Cn1nc2c(c1N)Cc1c(nn(C)c1N)-c1ccccc1-2` showed a TGI of over 100 µM.

With `COC(=O)C1=C(C(=O)OC)SC(=C2SC3=C(SC(=C4SCCS4)S3)S2)S1`, the TGI is over 100 µM.

Compound `CCC(=O)Nc1ccc(NS(=O)(=O)c2ccc(Cl)cc2)cc1` displayed a TGI of 54.3 µM.

`c1c(N2CCOCC2)ssc1=[N+]1CCOCC1`: the TGI was over 100 µM.

Compound `Cc1nnc2n1-c1ccccc1N(Cc1ccccc1)CC2` came in with a TGI of 58.3 µM.

In the case of `CC(C)(C)c1cc(/C=C2/NC(=O)NC2=O)cc(C(C)(C)C)c1O`, the TGI is 31.9 µM.

`Cc1cnc2[nH]c(-c3cccc(F)c3)cc(=O)c2c1` registered a TGI of over 43 µM.

`O=C(/C=C\Nc1ccccc1O)C(F)(F)F` displayed a TGI of over 100 µM.

Turning to `CC1(C)OC[C@@H](C[C@H](O)COCc2ccccc2)O1`, the TGI was over 100 µM.

`NC(N)=NS(=O)(=O)c1ccc(NC(=O)c2cccc3c(NNc4ccc(S(N)(=O)=O)cc4)c4ccccc4nc23)cc1` registered a TGI of over 100 µM.

Regarding `Nc1nncc2[nH]cnc12`, the TGI is over 56 µM.

Regarding `S=c1[nH]nc(Cn2c3ccc(Br)cc3c3nc4ccccc4nc32)n1C1CCCCC1`, the TGI came to 59.4 µM.

In the case of `COc1ccc2c(c1)-c1c(c3cc(OC)ccc3n1CCN(C)C)CC2`, the TGI is 31.2 µM.

On to `CCCCCCc1cc2cc(-c3csc(-c4ccc(OC)cc4)n3)c(=O)oc2cc1O`, for which the TGI is over 100 µM.

Take `COc1ccc(C2=C(Cl)C(=O)O/C2=C\c2ccc(OC)c(Br)c2)cc1Cl`: the TGI was over 100 µM.

For `CNC(=S)NNc1ncnc2c1c(-c1ccc(Cl)cc1)cn2-c1ccc(C)cc1`, the TGI was determined as 75.9 µM.

`CCCCCCCCCCCCNC(=O)CCC(NC(=O)c1ccc(N(C)Cc2cnc3nc(N)nc(N)c3n2)cc1)C(=O)NCCCCCCCCCCCC` (stereo unspecified) gave a TGI of over 100 µM.

With `O=C1c2cccnc2S(=O)(=O)N1c1ccc([N+](=O)[O-])cc1`, the TGI is over 100 µM.

A further assay concerns SR leukemia. Put plainly: NCI-60 cell line screen, 48 h.
With `O=CN1CCN(C(=O)c2ccco2)C1=S`, the TGI came out at 9.25 µM.

In turn, `CC(=O)C1(O)CCC2(O)C3(O)CC=C4CC(O)CCC4(C)C3CC(OC(=O)c3ccc(O)cc3)C12C` (stereo unspecified) came in with a TGI of over 100 µM.

The compound `Cn1c2c(c3ccccc31)CCN1C(=O)C34CCCC3CC21S4` (stereo unspecified) gave a TGI of over 100 µM.

`Clc1ccc(OCc2nnc(COc3ccc(OCc4nnc(COc5ccc(Cl)cc5Cl)o4)c(Cl)c3)o2)c(Cl)c1` showed a TGI of 36.6 µM.

Take `O=C1/C(=C/c2ccncc2)C(n2cccc2)c2c(Br)sc(Br)c21` (stereo unspecified): the TGI is 9.51 µM.

The compound `COCC#C[C@@]1(O)CCCCC1CC(OC)OC` (stereo partly specified) displayed a TGI of over 100 µM.

`C=C1CC(COc2ccc3c(C)c(C)c(=O)oc3c2C)(c2ccccc2)OC1=O` (stereo unspecified) showed a TGI of over 100 µM.

The compound `CC(=O)OCC(=O)O[C@@H]1[C@H]2[C@@H](OC(=O)c3ccccc3)[C@@H](C)C[C@]2(O)[C@H](OC(C)=O)[C@@]2(C)C[C@]1(OC(C)=O)C[C@H]1C(=O)C(C)(C)[C@@H](OC(C)=O)[C@@H]12` returned a TGI of over 25 µM.

Turning to `O=C(Sc1c(-c2ccccc2)c(=O)n(-c2ccccc2)c(=S)n1-c1ccccc1)c1ccco1`, the TGI is over 78.9 µM.

On to `Cn1nc2c(c1N)Cc1c(nn(C)c1N)-c1ccccc1-2`, for which the TGI is over 100 µM.

Consider `COC(=O)C1=C(C(=O)OC)SC(=C2SC3=C(SC(=C4SCCS4)S3)S2)S1`, for which the TGI is over 100 µM.

Compound `CCC(=O)Nc1ccc(NS(=O)(=O)c2ccc(Cl)cc2)cc1` returned a TGI of over 100 µM.

`c1c(N2CCOCC2)ssc1=[N+]1CCOCC1`: the TGI was over 100 µM.

Source of the values: PubChem BioAssay (NCI).
